Assay results published in PubChem BioAssay (NCI).
Values joined by “and” are separate entries in the source; they are usually repeats but may differ in a detail not shown here. Equal values may be shown once.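 These data come from cells grown in 96-well plates and exposed to compound for 48 hours at five concentrations. At the GI50, growth is halved. TGI marks complete inhibition of growth.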

Tests used:
Assay in all cases: growth of human tumour cells (NCI), 48 h
BT-549 breast = test system: BT-549 breast
CAKI-1 renal = test system: CAKI-1 renal
HCC-2998 colon = test system: HCC-2998 colon
HCT-15 colon = test system: HCT-15 colon
HL-60(TB) leukemia = test system: HL-60(TB) leukemia
MCF7 breast = test system: MCF7 breast
MDA-MB-435 = test system: MDA-MB-435
NCI-H226 lung = test system: NCI-H226 lung
OVCAR-4 ovarian = test system: OVCAR-4 ovarian
RPMI-8226 leukemia = test system: RPMI-8226 leukemia

| SMILES | GI50 (BT-549 breast) | TGI (BT-549 breast) | GI50 (CAKI-1 renal) | TGI (CAKI-1 renal) | GI50 (HCC-2998 colon) | TGI (HCC-2998 colon) | GI50 (HCT-15 colon) | TGI (HCT-15 colon) | GI50 (HL-60(TB) leukemia) | TGI (HL-60(TB) leukemia) | GI50 (MCF7 breast) | TGI (MCF7 breast) | GI50 (MDA-MB-435) | TGI (MDA-MB-435) | GI50 (NCI-H226 lung) | TGI (NCI-H226 lung) | GI50 (OVCAR-4 ovarian) | TGI (OVCAR-4 ovarian) | GI50 (RPMI-8226 leukemia) | TGI (RPMI-8226 leukemia) |
| --- | --- | --- | --- | --- | --- | --- | --- | --- | --- | --- | --- | --- | --- | --- | --- | --- | --- | --- | --- | --- |
| C/C(=N\Nc1ccc(Cl)cn1)c1ccccn1 | 0.362 µM | > 76 µM | 0.0452 µM | 2.64 µM | 0.554 µM | 68.2 µM | 0.0658 µM | > 50.4 µM | 0.0359 µM | 1.08 µM | 0.0989 µM | > 100 µM | 0.382 µM | > 100 µM | 0.0939 µM | 2.65 µM | 0.0485 µM | > 59.4 µM | 0.0572 µM | 12.3 µM |
| COc1cc(NS(=O)(=O)c2ccc(-c3cnc(C4CC4)o3)cc2)ccc1F | 2.02 µM | 20.3 µM | 0.408 µM | 30.6 µM | 1.09 µM | 12.7 µM | 0.198 µM | 17.1 µM | 0.247 µM | 6.86 µM | 0.201 µM | 22.9 µM | 0.0498 µM | 0.634 µM | 1.24 µM | 22.1 µM | 2.05 µM | 36.2 µM | 0.457 µM | 39.5 µM |
| COc1cc2c(c(OC)c1OC)C(=O)[C@@H]1c3ccc([N+](=O)[O-])cc3C(=O)N(CCCBr)[C@H]21 | 14.6 µM | 55.9 µM | 2 µM | 14.2 µM | 1.17 µM | 7.51 µM | 20.3 µM | > 100 µM | 64.2 µM | > 100 µM | 4.71 µM | > 100 µM | 2.79 µM | 14.7 µM | 13.6 µM | 49.7 µM | 17.1 µM | 64.2 µM | 14.8 µM | 91.1 µM |
| O=C1OC(c2ccco2)=N/C1=C\c1cccc([N+](=O)[O-])c1 |  | > 100 µM |  | > 100 µM |  | > 100 µM |  | > 100 µM |  | > 100 µM |  | > 100 µM |  | > 100 µM |  | > 100 µM |  | > 100 µM |  | > 100 µM |
| Nc1ncn(C2CC(O)C(CO)O2)c(=O)n1 (configuration not stated) |  | > 178 µM |  | > 375 µM |  | > 375 µM |  | > 302 µM |  | 103 µM |  | > 375 µM |  | > 98.3 µM |  | > 331 µM |  | > 375 µM |  | > 375 µM |
| COc1cc2c3c(n(C)c(=O)c2cc1OC)-c1cc2c(cc1/C3=C\CNCCCN)OCO2 | 1.91 µM | 5.22 µM | 0.848 µM | 16 µM | 0.501 µM | 1.99 µM | 3.13 µM | 17.7 µM | 0.171 µM | 0.782 µM | 1.04 µM | 16.5 µM | 1.02 µM | 5.72 µM | 0.0753 µM | 0.797 µM | 3.42 µM | 36.6 µM | 0.414 µM | 2.15 µM |
| O=C(/C=C\n1cnc(-c2cc(C(F)(F)F)cc(C(F)(F)F)c2)n1)NNc1cnccn1 | 0.0385 µM | 2.82 µM | 0.0414 µM | 12 µM | 0.112 µM | 1.93 µM | 0.098 µM | 13.4 µM | 0.0467 µM |  | 0.0329 µM | 11.5 µM | 0.0533 µM | 1.24 µM | 0.0384 µM | 3.05 µM | 0.0364 µM | 14 µM | 0.0449 µM | > 47.3 µM |
| CCN(CC)CCCC(C)Nc1cnc(C(=O)Nc2cccc3ccc(OC)nc23)cn1 (configuration not stated) | 1.95 µM | 4.47 µM | 1.77 µM | 3.76 µM | 1.82 µM | 3.46 µM | 1.95 µM | 4.31 µM | 1.92 µM | 3.9 µM | 1.67 µM | 3.41 µM | 1.77 µM | 3.24 µM | 7.52 µM | 21.7 µM | 1.98 µM | 4.62 µM | 2.45 µM | 6.15 µM |
| N#Cc1cccc(NC(=O)c2cc(-c3ccc(F)cc3F)ccc2O)c1 | 2.31 µM | 7.06 µM | 2.31 µM | 10.1 µM | 2.97 µM | 10.1 µM | 2.74 µM | 11.4 µM | 2.17 µM | 5.6 µM | 2.15 µM | 9.72 µM | 2.38 µM | 9.32 µM | 1.67 µM | 6.43 µM | 2.11 µM | 23 µM | 0.675 µM | 3.16 µM |
| Nc1nc(-c2cccc(Cl)c2)c(-c2ccc3ncccc3n2)s1 | > 25 µM | > 25 µM | > 25 µM | > 25 µM | > 25 µM | > 25 µM | > 25 µM | > 25 µM | > 25 µM | > 25 µM | > 25 µM | > 25 µM | > 25 µM | > 25 µM | > 22 µM | > 25 µM | > 25 µM | > 25 µM | > 25 µM | > 25 µM |
| Cc1ccc2c(c1)CN(C(=O)CCC(=O)OCc1ccccc1)c1ccc(C)cc1CN2C(=O)CCC(=O)OCc1ccccc1 |  | > 100 µM |  | > 100 µM |  | > 100 µM |  | > 100 µM |  | > 100 µM |  | > 100 µM |  | > 100 µM |  | > 100 µM |  | > 100 µM |  | > 100 µM |
| O=c1[nH]c(=O)n(C2OC(CO)C(O)C(O)C2O)cc1F (configuration not stated) |  | > 100 µM |  | > 100 µM |  | > 100 µM |  | > 100 µM |  | > 74.5 µM |  | > 100 µM |  | > 100 µM |  | > 100 µM |  | > 100 µM |  | > 100 µM |
| COc1ccc(OC)c(C(=O)c2oc3ccc(Br)cc3c2N)c1 | 0.584 µM | 21.1 µM | 0.372 µM | > 100 µM | 1.32 µM | 12.8 µM | 0.214 µM | 14.2 µM | 0.27 µM | 10.3 µM | 0.289 µM | > 48.2 µM | 0.0466 µM | 0.253 µM | 2.38 µM | > 100 µM | 3.61 µM | > 100 µM | 0.37 µM | 6.51 µM |
| CCC(=O)c1c(C(F)(F)F)n([O-])c2ccc(C)cc2[n+]1=O | 1.35 µM | 5.43 µM | 5.78 µM | 16.2 µM | 5.92 µM | 21.9 µM | 3.05 µM | > 50 µM | 4.82 µM | > 50 µM | 6.29 µM | 40.5 µM | 9.53 µM | 40.8 µM | 10.8 µM | > 50 µM | 24 µM | > 50 µM | 12.4 µM | > 50 µM |
| COc1ccc(C2SCC(=O)N2NC(=O)Nc2c(C)nc3ccccn23)cc1 (configuration not stated) | 24.2 µM | 65 µM | > 100 µM | > 100 µM | > 100 µM | > 100 µM | > 100 µM | > 100 µM | > 100 µM | > 100 µM | 75.7 µM | > 100 µM | > 100 µM | > 100 µM | 42.8 µM | > 100 µM | > 100 µM | > 100 µM | > 100 µM | > 100 µM |
| CC(C)(C)c1cc(NC(=O)Cc2ccc(-c3cnc4cc(-c5cnn(CCN6CCOCC6)c5)ccc4n3)cc2)no1 |  | 39.5 µM and > 100 µM and > 3 µM | 0.123 µM and 0.219 µM and 0.0253 µM | 50 µM and > 100 µM and > 3 µM |  | 50 µM and > 100 µM and > 3 µM | 0.166 µM and 0.342 µM and 0.0517 µM | 50 µM and > 100 µM and > 3 µM | 0.225 µM and 0.546 µM and 0.158 µM | 50 µM and > 100 µM and > 3 µM | 0.301 µM and 0.806 µM and 0.194 µM | 50 µM and > 100 µM and > 3 µM | 0.356 µM and 0.452 µM and 0.0989 µM | 50 µM and > 100 µM and > 3 µM | 0.223 µM and 0.533 µM and 0.0783 µM | 50 µM and > 100 µM and > 3 µM | 0.158 µM and 0.363 µM and 0.0439 µM | 50 µM and 14.4 µM and > 1.16 µM | 0.249 µM and 0.609 µM and 0.0985 µM | 50 µM and > 100 µM and > 3 µM |
| CC[C@H](C)[C@H]1O[C@]2(C=C[C@@H]1C)C[C@@H]1C[C@@H](C/C=C(\C)[C@@H](O[C@H]3C[C@H](OC)[C@@H](O[C@H]4C[C@H](OC)[C@@H](NC)[C@H](C)O4)[C@H](C)O3)[C@@H](C)/C=C/C=C3\CO[C@@H]4[C@H](O)C(C)=C[C@@H](C(=O)O1)[C@]34O)O2 | 4.13 µM | 15.1 µM | 1.89 µM | 5.02 µM | 1.89 µM | 3.36 µM | 1.78 µM | 4.46 µM | 1.88 µM | 3.81 µM | 1.85 µM | 4.34 µM | 1.79 µM | 3.62 µM | 4.26 µM | 16 µM | 3.3 µM | 13.4 µM | 3.32 µM | 13.6 µM |
